From US20170151219A1, “ANTIPERSPIRANT AGENT” (OSAKA UNIVERSITY, priority 2014, published 2017)

Tests used:
[1] = test system: human; test: Observation of skin symptom after oral administration of mTOR inhibitor; assay type: in vivo; conditions: orally 10 mg per day, FIG. 3
Protocol: An influence on a skin exerted by a mTOR inhibitor was observed.
Specifically, a mTOR inhibitor (everolimus (Afinitor (Registered Trademark)) was orally administered to a human by 10 mg per day, and a symptom appeared on the skin was observed.
Specifically, (a) of FIG. 3 is a photograph showing a state of the skin before the mTOR inhibitor is administered, and (b) of FIG. 3 is a photograph showing a state of the skin after the mTOR inhibitor is administered.

[2] = test system: patient of renal angiomyolipoma in consequence of tuberous sclerosis; test: Amount of sweating measured with local perspiration meter during and after oral mTOR inhibitor; assay type: in vivo, human; conditions: FIG. 4
Protocol: To a patient of renal angiomyolipoma in consequence of tuberous sclerosis, the mTOR inhibitor (everolimus (Afinitor (Registered Trademark))) was orally administered by 10 mg per day for approximately four months, and then the oral administration of the mTOR inhibitor was withdrawn.
During the period, after the oral administration of the mTOR inhibitor was started, an amount of sweating on a normal skin of the patient was measured with time and an amount of sweating on a skin of the patient on which a symptom of vitiligo appeared was measured with time.
The amount of sweating was measured with use of a local perspiration meter (quantitative axon reflex sweat amount measuring device) manufactured by Skinos Giken, and a specific measuring method was in conformity to a protocol attached to the device.

[3] = orally 10 mg per day for approximately four months

CO[C@H]1C[C@@H]2CC[C@@H](C)[C@@](O)(O2)C(=O)C(=O)N2CCCC[C@H]2C(=O)O[C@H]([C@H](C)C[C@@H]2CC[C@@H](OCCO)[C@H](OC)C2)CC(=O)[C@H](C)/C=C(\C)[C@@H](O)[C@@H](OC)C(=O)[C@H](C)C[C@H](C)/C=C/C=C/C=C/1C [everolimus]
symptom appeared on the skin [1]: dry skin
amounts of sweating after withdrawal of administration ([2]; normal skin and vitiligo skin, after withdrawal of oral administration): restored
amount of sweating on the normal skin [2, 3]: reduced
amount of sweating on the skin showing the symptom of vitiligo [2, 3]: reduced
